# Measurements as given in publication PMC3914206.
# Experiments:
# Assay type in all cases: binding
# Parameters in all cases: KINOMEscan: ABL1(F317L)-phosphorylated / KINOMEscan: ABL1(H396P)-nonphosphorylated / KINOMEscan: ABL1(H396P)-phosphorylated / KINOMEscan: ABL1(M351T)-phosphorylated / KINOMEscan: ABL1(T315I)-phosphorylated / KINOMEscan: ABL1-nonphosphorylated / KINOMEscan: ABL1-phosphorylated / KINOMEscan: ACVR2A / KINOMEscan: ACVR2B / KINOMEscan: ADCK3 / KINOMEscan: ADCK4 / KINOMEscan: AKT1 / KINOMEscan: AKT3 / KINOMEscan: ALK / KINOMEscan: ARK5 / KINOMEscan: AURKA / KINOMEscan: AURKC / KINOMEscan: BIKE / KINOMEscan: BMPR1A / KINOMEscan: BMPR1B / KINOMEscan: BMX / KINOMEscan: BRK / KINOMEscan: BRSK1 / KINOMEscan: BRSK2 / KINOMEscan: CAMK1 / KINOMEscan: CAMK1D / KINOMEscan: CAMK1G / KINOMEscan: CAMK2A / KINOMEscan: CAMK2B / KINOMEscan: AAK1 / KINOMEscan: CAMK2D / KINOMEscan: CAMK2G / KINOMEscan: ABL1(F317I)-nonphosphorylated / KINOMEscan: ABL1(F317I)-phosphorylated / KINOMEscan: ABL1(F317L)-nonphosphorylated: unit: % Ctrl
# Details in all cases: Compound Concentration 10 µM
# panel of 442 kinases [1] = molecular target: T1, panel of 442 kinases (Homo sapiens, UniProt Q15139)
# T1 construct: purchased KINOMEscan
# T1 sequence (Q15139 1-912): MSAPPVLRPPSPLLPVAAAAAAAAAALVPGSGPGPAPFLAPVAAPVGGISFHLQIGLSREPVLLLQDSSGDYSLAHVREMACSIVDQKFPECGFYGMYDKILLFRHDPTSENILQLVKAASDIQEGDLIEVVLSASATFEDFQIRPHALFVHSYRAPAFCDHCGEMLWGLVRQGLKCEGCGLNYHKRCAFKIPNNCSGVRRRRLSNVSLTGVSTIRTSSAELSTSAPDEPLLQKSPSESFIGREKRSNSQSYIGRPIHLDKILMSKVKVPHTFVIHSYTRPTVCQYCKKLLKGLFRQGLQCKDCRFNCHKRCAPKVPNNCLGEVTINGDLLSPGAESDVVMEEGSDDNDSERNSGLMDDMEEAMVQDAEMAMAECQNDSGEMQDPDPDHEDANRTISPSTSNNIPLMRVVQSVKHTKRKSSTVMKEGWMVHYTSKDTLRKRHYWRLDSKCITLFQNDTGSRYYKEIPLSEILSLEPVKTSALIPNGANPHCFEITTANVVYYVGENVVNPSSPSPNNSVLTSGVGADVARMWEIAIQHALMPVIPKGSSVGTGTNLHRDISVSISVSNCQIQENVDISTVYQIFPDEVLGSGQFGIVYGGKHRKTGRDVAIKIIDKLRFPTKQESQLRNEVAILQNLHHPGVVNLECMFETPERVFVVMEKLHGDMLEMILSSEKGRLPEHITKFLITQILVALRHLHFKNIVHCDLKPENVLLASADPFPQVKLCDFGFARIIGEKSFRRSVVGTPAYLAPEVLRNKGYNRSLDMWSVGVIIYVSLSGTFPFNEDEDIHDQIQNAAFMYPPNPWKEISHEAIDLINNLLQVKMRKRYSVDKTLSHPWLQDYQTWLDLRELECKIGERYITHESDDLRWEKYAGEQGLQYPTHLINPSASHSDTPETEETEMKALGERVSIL
# From the text: (§1) We assessed the selectivity of members of this scaffold using the KINOMEscan methodology across a near comprehensive panel of 442 kinases [[18,27]].
# panel of 442 kinases [2] = molecular target: T2, panel of 442 kinases (Homo sapiens, UniProt Q13882)
# T2 construct: purchased KINOMEscan
# From the text: as §1
# panel of 442 kinases [3] = molecular target: T3, panel of 442 kinases (Homo sapiens, UniProt P28482)
# T3 construct: purchased KINOMEscan
# From the text: as §1
# T3 sequence (P28482 whole entry): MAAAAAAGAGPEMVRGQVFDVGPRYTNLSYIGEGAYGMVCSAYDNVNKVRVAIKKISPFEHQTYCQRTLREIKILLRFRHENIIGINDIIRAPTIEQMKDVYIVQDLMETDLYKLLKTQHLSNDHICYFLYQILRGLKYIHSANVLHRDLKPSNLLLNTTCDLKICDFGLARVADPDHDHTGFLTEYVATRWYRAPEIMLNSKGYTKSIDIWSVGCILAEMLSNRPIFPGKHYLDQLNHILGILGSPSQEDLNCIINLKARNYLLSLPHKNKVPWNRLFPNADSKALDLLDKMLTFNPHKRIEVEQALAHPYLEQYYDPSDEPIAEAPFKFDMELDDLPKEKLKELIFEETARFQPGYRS
# T2 sequence (Q13882 whole entry): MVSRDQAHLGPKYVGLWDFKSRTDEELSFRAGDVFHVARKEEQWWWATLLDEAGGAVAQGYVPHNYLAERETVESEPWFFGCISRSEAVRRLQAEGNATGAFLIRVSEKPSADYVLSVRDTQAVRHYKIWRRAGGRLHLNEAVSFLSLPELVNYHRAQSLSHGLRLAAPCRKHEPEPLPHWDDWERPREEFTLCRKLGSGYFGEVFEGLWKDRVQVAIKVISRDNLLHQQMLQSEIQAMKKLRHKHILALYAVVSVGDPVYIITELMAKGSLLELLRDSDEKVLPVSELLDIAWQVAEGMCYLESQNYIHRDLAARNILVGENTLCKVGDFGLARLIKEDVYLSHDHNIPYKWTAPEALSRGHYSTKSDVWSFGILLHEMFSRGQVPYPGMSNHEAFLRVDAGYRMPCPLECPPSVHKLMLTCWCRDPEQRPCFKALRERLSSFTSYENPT
Compound,KINOMEscan: PRKD1 (panel of 442 kinases [1]),KINOMEscan: BRK (panel of 442 kinases [2]),KINOMEscan: ERK2 (panel of 442 kinases [3])
COc1cc(C(=O)N2CCC(N3CCN(C)CC3)CC2)ccc1Nc1ncc2c(n1)N1CCc3cccc(c31)C(=O)N2C [Compound 24],21,54,88
CCOc1cc(C(=O)N2CCC(N3CCN(C)CC3)CC2)ccc1Nc1ncc2c(n1)N(C1CCCC1)c1ccccc1C(=O)N2C [Compound 26],100,62,100
"COc1cc(C(=O)N2CCC(N3CCN(C)CC3)CC2)ccc1Nc1ncc2c(n1)N(C1CCCC1)c1ccccc1C(=O)N2C [Compound 25, 11-cyclopentyl-2-((2-methoxy-4-(4-(4-methylpiperazin-1-yl)piperidine-1-carbonyl)phenyl)amino)-5-methyl-5H-benzo[e]pyrimido[5,4-b][1,4]diazepin-6(11H)-one]",100,29,98
COc1cc(C(=O)N2CCC(N3CCN(C)CC3)CC2)ccc1Nc1ncc2c(n1)N(C)c1ccccc1C(=O)N2C [15 (LRRK2-IN-1)],28,58,85
